# Test results taken from patent US20210267981A1, “COMPOUNDS FOR THE TREATMENT OF HIV INFECTION AND OTHER DISEASES CAUSED BY RNA VIRUSES” (UNIVERSIDAD CATOLICA DE VALENCIA "SAN VICENTE MARTIR", priority 2018, published 2021).
# Where two headings read alike, the source gives them in different places.
# Columns and labels:
# [1] = system: IIBh RNA; assay: NMR spectroscopy of compound binding to IIBh RNA; set-up: species or system HIV-1; settings: increasing ligand:RNA molar ratios
# Method: The NMR spectra were acquired in a 500 MHz Bruker Avance spectrometer and analyzed with Topspin 3.5 (Bruker Biospin, Billerica, USA). The interaction between the tested compounds and IIBh RNA samples dissolved at a concentration of 40-60 μM were monitored as described previously in the state of the art (Prado et al., Biochem Pharmacol 107 (2016) 14-28; Gonzalez-Bulnes et al., Angewandte Chemie-International Edition 52(50) (2013) 13405-13409), using one-dimensional and two-dimensional experiments (TOCSY) at increasing ligand:RNA molar ratios.
# NMR spectroscopy is then used for identifying the binding sites in the IIBh fork of the compounds. […] This compound altered the signals of residues C9, A19, C20, and U23 comprising the Rev binding site, but also disrupted the signals of the double-helix stems flanking the loop. 2a and 2b required a higher drug:RNA molar ratio to induce changes in the signals of IIBh RNA.
# [2] = system: HIV-1 LTR promoter (LTR-Luc); assay: Cell transfection assay, LTR-Luc plasmid in MT-2 cells; format: cell-based; settings: for EC50: read-out: EC50 of transfection, LTR; for inhibition of LTR-dependent expression: compared with HIV-1 infection and transfection assays
# Method: (§1) Cell Transfection Assays.
# (§2) MT-2 cells were transfected with plasmids containing a luciferase reporter gene the expression of which was under the control of the complete HIV-1 (NL4.3-luc) or HIV-1 LTR promoter (LTR-Luc). After transfection, the cells were treated with different compound concentrations, and the luciferase activity in the cell lysates was quantified 48 h later (Prado et al., Biochem Pharmacol 107 (2016) 14-28; Gonzalez-Bulnes et al., Angewandte Chemie-International Edition 52(50) (2013) 13405-13409).
# The antiviral mechanism of compounds 1a and 2a was examined with additional cellular assays.
# [3] = system: HIV-1 RNA transcripts (RRE-Rev system in a cellular context); assay: HIV-1 RNA processing analysis by RT-qPCR in MT-2 cells transfected with pNL4.3; format: cell-based; settings: 5 and 10 μM
# Method: HIV-1 RNA Processing Analysis.
# MT-2 cells, previously treated for 72 or 96 hours with two different concentrations (5 and 10 μM) of compound 1a or 2a, were transfected with a pNL4.3 plasmid. Total cellular RNA was then isolated, treated with DNase I, and reverse transcribed as described in the state of the art (Prado et al., Biochem Pharmacol 107 (2016) 14-28). The unprocessed, semi-processed, and completely processed HIV-1 RNA transcripts were quantified by means of qPCR in relation to an untreated control obtained, using primers described by Mohammadi et al. (PLoS Pathog 9(1) (2013) e1003161), and GAPDH as endogenous control.
# Whether or not compounds 1a and 2a acted in the RRE-Rev system in a cellular context was then verified. After transfecting the cells with a full-length proviral vector, the amounts of unprocessed, semi-processed, and completely processed HIV-1 RNA transcripts were quantified by means of RT-qPCR in the absence and presence of each compound (Prado et al., Biochem Pharmacol 107 (2016) 14-28). Given that Rev indirectly puts the splicing process at a disadvantage by transporting unprocessed or semi-processed viral transcripts from the nucleus to the cytoplasm, the blocking of the RRE-Rev system should increase the levels of completely processed species and reduce the amount of unprocessed or semi-processed HIV-1 transcripts.
# [4] = system: subdomain IIB of the RRE (IIBh-19ap RNA); assay: Fluorescence intensity binding to IIBh RNA, with or without competing RNAtCys or LTRd DNA; set-up: species or system HIV-1; settings: for specificity of the interaction with IIB: 100-fold molar excess of RNAtCys or LTRd; for specificity IIB/DNA: Kd(IIBh)/Kd(IIBh + LTRd) quotient; for specificity IIB/RNA: Kd(IIBh)/Kd(IIBh + tRNA) quotient
# Method: Depending on the absorption spectra of the compounds, these experiments measured association with IIBh-19ap or IIBh-23fl RNA sequences labeled with 2-aminopurine and fluorescein in residues A19 and U23 of the IIB loop, respectively (Prado et al., Biochem Pharmacol 107 (2016) 14-28), and were carried out in a SPECTRA GEMINI XPS plate reader (Molecular Devices, Sunnyvale, USA) or a Victor X5 plate reader (Perkin Elmer). The IIB RNA concentration in these assays was 100 nM, and the specificity of the interactions with respect to RNA and DNA was evaluated by duplicating the experiments in the presence of a 100-fold molar excess (10 μM) of RNAtCys or LTRd DNA duplex. All the fluorescence intensity experiments were performed at least three times for each compound.
# The specificity of the interaction was evaluated by duplicating the experiments in the presence of a 100-fold molar excess of RNAtCys. Likewise, specificity with respect to a double-stranded DNA was evaluated by further performing the experiments with a 100-fold molar excess of a DNA duplex with 26 base pairs (identified as LTRd) containing NF-κB and Sp-1 transcription factor-binding sites (Prado et al., Biochem Pharmacol 107 (2016) 14-28). These two factors bind to the LTR promoter of HIV-1 DNA and are essential for virus replication (Jones et al., AnnuRevBiochem 63 (1994) 717-43).
# [5] = system: complete HIV-1 (NL4.3-luc); assay: Cell transfection assay, full-length HIV-1 luciferase plasmid (NL4.3-luc) in MT-2 cells; format: cell-based
# Method: as §1, §2
# In order to identify the target or the set of targets of the tested compounds, an assay based on the transfection of a full-length HIV-1 vector is performed. In this experiment, the entry, reverse transcription, and DNA integration phases of the viral cycle are sidestepped, such that only transcriptional or post-transcriptional events which can be blocked by the inhibitor under study are produced.
# [6] = system: complete RRE-Rev complex; assay: Electrophoretic mobility shift assay (EMSA) of complete RRE-Rev complex formation; format: binding, HIV-1; settings: for IC50: 78 nM RRE and 1.32 μM Rev, two independent experiments
# Method: Electrophoretic Mobility Shift Assays (EMSA).
# These experiments used 78 nM of complete RRE, 1.32 μM of complete Rev, and increasing concentrations of each compound, and were carried out and analyzed as described previously in the state of the art (Prado et al., Biochem Pharmacol 107 (2016) 14-28; Fang et al., Cell 155(3) (2013) 594-605). The IC50 values were determined by measuring the area and the intensity of the band corresponding to free RRE. These experiments were performed at least three times for each compound.
# (§3) The capacity of the compounds to inhibit IIB-Rev34-50 interaction was evaluated by means of an assay based on the detection, by means of fluorescence anisotropy (FA), of the shift of an FITC-labeled Rev34-50 peptide from its binding site in subdomain IIB of RRE. The capacity of the compounds to inhibit the formation of the RRE-Rev complex was evaluated by means of an electrophoretic mobility shift assay (EMSA).
# [7] = system: HIV-1; assay: Anti-HIV-1 activity, cell infection assay in MT-2 cells (pNL4.3-Ren supernatants); format: cell-based
# Method: Plasmids, Virus, and Cells for Ex Vivo Assays.
# Vectors pNL4.3-Luc and pNL4.3-Ren were generated by cloning luciferase and Renilla genes, respectively, in the nef site of HIV-1 proviral plasmid pNL4.3 (Adachi et al., J Virol 59(2) (1986) 284-91), as described previously in the state of the art (Garcia-Perez et al., J Med Virol 79(2) (2007) 127-37). MT-2 cells (Harada et al., Science 229(4713) (1985) 563-6) and 293T cells (American Type Culture Collection, Rockville, USA) were cultured as described previously (Prado et al., Biochem Pharmacol 107 (2016) 14-28).
# (§4) Anti-HIV-1 Activity and Cell Toxicity.
# (§5) The methodology used for performing and analyzing these experiments has been described previously (Prado et al., Biochem Pharmacol 107 (2016) 14-28; Gonzalez-Bulnes et al., Angewandte Chemie-International Edition 52(50) (2013) 13405-13409). Briefly, infectious supernatants were obtained from 293T cells transfected with the pNL4.3-Ren plasmid. MT-2 cells were infected with these supernatants in the presence of the compounds, and the anti-HIV activity was quantified 48 h after infection by determining luciferase activity in the cell lysates. Cell viability was evaluated in cells treated with the same compound concentrations using the CellTiter-Glo assay (Promega). The antiviral activity and cell toxicity results represent the average of at least three independent experiments.
# [8] = system: IIB-Rev34-50 interaction (subdomain IIB of RRE and FITC-labeled Rev34-50 peptide); assay: Fluorescence anisotropy (FA) inhibition of IIBh-Rev34-50 interaction; format: binding, HIV-1
# Method: Fluorescence Anisotropy (FA).
# These experiments were performed and analyzed as described in the state of the art (Prado et al., Biochem Pharmacol 107 (2016) 14-28; Gonzalez-Bulnes et al., Angewandte Chemie-International Edition 52(50) (2013) 13405-13409; Luedtke et al., Biopolymers 70(1) (2003) 103-19), using 96-well plates and Victor X3 or Victor X5 plate readers (Perkin Elmer, Waltham USA). The assays used 10 nM of frevp and 60 nM of IIBh, and included one positive control (a mixture of IIBh and frevp) and two negative controls (frevp and a mixture of IIBh, frevp, and neomycin B). IIBh-frevp inhibition was only considered to exist when anisotropy reached the expected minimum value at the highest inhibitor concentrations. To ensure that there would not be spectral superposition with FITC, anisotropy data was also collected for each of the compounds. None of them emitted fluorescence under the assay conditions. These experiments were repeated three times for each compound.
# as §3
# [9] = Cell toxicity, CellTiter-Glo assay; format: cell-based; settings: human
# Excerpt: as §4, §5
# [10] = system: MT-2 cells; assay: Cell toxicity, CellTiter-Glo assay; format: cell-based; settings: CC50 versus antiviral concentration of the infection experiments
# Excerpt: as §4, §5
# [11] = IIBh-19ap, 100-fold molar excess of LTRd DNA duplex, read-out: Kd(IIBh + LTRd)
# [12] = IIBh-19ap, 100-fold molar excess of RNAtCys, read-out: Kd(IIBh + tRNA)
# [13] = Human immunodeficiency virus 1, MT2, 48 h, read-out: EC50 of transfection, HIV
# [14] = Human immunodeficiency virus 1, MT2, read-out: EC50 transfection assay of full-length HIV-1 vector
# [15] = Human immunodeficiency virus 1, MT2, 48 h, read-out: EC50 of infection, HIV
# [16] = Human immunodeficiency virus 1, MT2, read-out: EC50 cell infection assay
# [17] = range given for FA and EMSA together for 2a and 2b, read-out: IC50 (FA, IIB-Rev34-50 interaction)
# [18] = MT-2 cells, CellTiter-Glo, read-out: CC50
# [19] = IIBh-19ap, no competitor, read-out: Kd(IIBh)
# [20] = 60 nM IIBh and 10 nM frevp, three independent experiments, read-out: IC50 IIB-Rev34-50
SMILES,changes of IIBh RNA NMR signals [1],inhibition of LTR-dependent expression [2],"effect on pattern of unprocessed, semi-processed and completely processed HIV-1 RNA transcripts [3]",levels of viral transcripts in relation to untreated cells [3],specificity of the interaction with IIB [4],"Kd [4, 11] [µM]","Kd [4, 12] [µM]",specificity IIB/DNA [4],specificity IIB/RNA [4],"EC50 [5, 13] [µM]","EC50 [5, 14] [µM]","EC50 [7, 15] [µM]","EC50 [7, 16] [µM]","IC50 [8, 17] [µM]","CC50 [9, 18] [µM]",CC50 values fold greater than the antiviral concentrations [10] [fold],"Kd [4, 19] [µM]",IC50 [6] [µM],"IC50 [8, 20] [µM]",other results
CN(C)CCOc1cc2c(c3ccccc13)-c1ccccc1C2=O [Compound 1a],widened or altered the chemical shift of IIBh resonances at low drug:RNA molar ratios,weaker inhibition of LTR-dependent expression in relation to the activity detected in the complete HIV-1 transfection assay,This effect was clearly observed,significant reduction in the levels of viral transcripts,moderate specificity,2.8,2.4,0.50,0.58,2.5,2.5 to 3.3,0.83,0.83,6.7,28.1,34,–,–,–,"EC50 ([2]; Human immunodeficiency virus 1, MT2, 48 h): 12.5 to 25 µM; Kd ([4]; fluorescence intensity, read-out: Kd for subdomain IIB of the RRE): 1.4 µM; concentrations at which formation of RRE-Rev complexes with an unusual molecular weight was promoted [6]: greater than 10 μM"
Fc1nc(N2CCNCC2)c(F)c(Sc2ccc(Cl)cc2)c1F [Compound 2a],affected the signals of residues located in the stems flanking the internal loop,inhibited LTR-dependent expression with an EC50 value similar to those measured in the HIV-1 infection and transfection experiments,did not induce clear changes in the patterns of unprocessed viral transcripts with respect to processed viral transcripts,reduced the amount of viral transcripts to a lesser extent with respect to 1a,specific,9.2,9,1.17,1.20,3.3,2.5 to 3.3,2,2,–,–,22,10.8,4.7,4.8,"EC50 ([2]; Human immunodeficiency virus 1, MT2, MT-2 cells, LTR-Luc, 48 h): 4.4 µM; CC50 [9]: 43.9 µM"
N=c1c(S(=O)(=O)c2ccc(Cl)cc2)cc2c(=O)n3ccccc3nc2n1C1CCCCC1 [Compound 2b],only induced the widening of signals of residue U23 of the loop at a high drug:RNA molar ratio,–,–,–,specific,10.2,11.4,1.19,1.06,> 100,–,10.2,10.2,10.3 to 13.7,> 100,> 10,12.1,13.7,10.3,activity in the transfection assay ([5]; at concentrations lower than 100 μM): inactive
